Test results as given in patent publication US5889007A, “10, 11-methanodibenzosuberane derivatives” (priority 1995, dated 1999).
Like-named read-outs stand apart in the source and are kept apart here.

Tests used:
[1] = Determination of Stability at Acid pH (HPLC, 0.01N HCl); format: physicochemical; details: 0.01N HCl (pH 2), 37° C.
Procedure: Determination of Stability at Acid pH
Test compounds (15 μg) were dissolved in 3 ml of 0.01N HCl (pH 2) and incubated at 37° C. […] The test compounds and their degradation products were monitored by UV absorption at 240 nm. Disappearance of the parent compound was expressed as a percent peak height relative to time zero, from which t1/2 values were determined graphically, as follows.

[2] = cited from earlier work
[3] = cited from earlier work; remark: listed apart in the source
[4] = system: multidrug resistance; details: anticancer drug potentiator; cited from earlier work
[5] = system: multidrug resistance; details: compared with MS-073; cited from earlier work
[6] = system: drug-resistant malaria; details: in vitro; cited from earlier work

OC(COc1cccc2ncccc12)CN1CCN(C2c3ccccc3C3C(c4ccccc42)C3(F)F)CC1 (racemic) [(2R,S)-5-{3-[4-(10,11-difluoromethanodibenzosuber-5-yl)piperazine-1-yl]-2-hydroxypropoxy}quinoline]
half-life [1]: > 72 h

OC(COc1cccc2ncccc12)CN1CCN([C@@H]2c3ccccc3[C@H]3C[C@H]3c3ccccc32)CC1 (relative stereo) [(2R,S)-anti-5-{3-[4-(10,11-methanodibenzosuber-5-yl)piperazin-1-yl]-2-hydroxypropoxy}quinoline]
half-life [1]: 2.5 h

OC(COc1cccc2ncccc12)CN1CCN(C2c3ccccc3C3C(Cl)C3c3ccccc32)CC1 [(2R,S)-anti-5-{3-[4-(10,11-chloromethanodibenzosuber-5-yl)piperazine-1-yl]-2-hydroxypropoxy}quinoline]
t1/2 [1]: > 72 h

OC(COc1cccc2ncccc12)CN1CCN(C2c3ccccc3CCc3ccccc32)CC1 (stereo not shown) [MS-073]
half-life [1]: 0.25 h
oral bioavailability ([2]; oral): poor oral bioavailability
stability in solution [3]: instability problems in solution
activity in in vitro testing [4]: highly active

O=C(C(c1ccccc1)c1ccccc1)N1CCN(CC(O)COc2cccc3ncccc23)CC1 (stereo not shown) [MS-209]
effective doses [5]: higher effective doses
oral bioavailability ([2]; in vivo, po): better stability and oral bioavailability

COc1ccc(CCN(C)CCCC(C#N)(c2ccc(OC)c(OC)c2)C(C)C)cc1OC (stereo not shown) [verapamil]
effect in treating drug-resistant malaria [6]: effective in vitro
